Target: T1, GABAA receptor β2 subunit (α1β2γ2 GABAA receptor) (Rattus norvegicus, UniProt P63138)
T1 construct: gene Gabrb2; recombinant α1β2γ2 receptor expressed in Xenopus oocytes; also concatenated α1-β2-α1/γ2-β2; with GABAA receptor α1 and γ2 subunits
Assay: two-electrode voltage clamp in Xenopus oocytes, potentiation of GABA currents; beta1/beta2 concatemers and point mutants
Assay type: cell-based

T1 sequence (P63138 26-474): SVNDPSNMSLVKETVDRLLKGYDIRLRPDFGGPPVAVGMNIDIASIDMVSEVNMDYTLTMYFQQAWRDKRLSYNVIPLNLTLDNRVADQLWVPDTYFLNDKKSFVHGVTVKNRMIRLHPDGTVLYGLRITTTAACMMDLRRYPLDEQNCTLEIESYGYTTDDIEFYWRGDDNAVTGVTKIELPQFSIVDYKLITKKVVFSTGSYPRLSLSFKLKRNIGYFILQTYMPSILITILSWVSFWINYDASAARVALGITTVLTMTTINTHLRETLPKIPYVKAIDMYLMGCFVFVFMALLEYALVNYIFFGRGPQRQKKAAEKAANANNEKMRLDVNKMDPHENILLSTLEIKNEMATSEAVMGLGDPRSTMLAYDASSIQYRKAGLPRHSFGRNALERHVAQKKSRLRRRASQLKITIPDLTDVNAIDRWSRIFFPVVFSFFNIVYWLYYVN
T1 sequence (P62813 28-455 partner): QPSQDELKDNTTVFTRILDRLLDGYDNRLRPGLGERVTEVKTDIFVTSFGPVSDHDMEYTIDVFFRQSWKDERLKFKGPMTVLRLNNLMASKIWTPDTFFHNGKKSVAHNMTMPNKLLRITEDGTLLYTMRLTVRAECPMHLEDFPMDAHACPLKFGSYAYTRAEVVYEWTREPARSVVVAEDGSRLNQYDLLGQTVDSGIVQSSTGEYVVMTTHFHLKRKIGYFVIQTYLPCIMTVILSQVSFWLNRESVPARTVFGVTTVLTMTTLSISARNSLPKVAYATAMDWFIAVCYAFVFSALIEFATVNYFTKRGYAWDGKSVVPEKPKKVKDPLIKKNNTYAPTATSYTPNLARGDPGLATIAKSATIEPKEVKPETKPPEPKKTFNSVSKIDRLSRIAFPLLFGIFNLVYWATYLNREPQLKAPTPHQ
T1 sequence (P18508 39-466 partner): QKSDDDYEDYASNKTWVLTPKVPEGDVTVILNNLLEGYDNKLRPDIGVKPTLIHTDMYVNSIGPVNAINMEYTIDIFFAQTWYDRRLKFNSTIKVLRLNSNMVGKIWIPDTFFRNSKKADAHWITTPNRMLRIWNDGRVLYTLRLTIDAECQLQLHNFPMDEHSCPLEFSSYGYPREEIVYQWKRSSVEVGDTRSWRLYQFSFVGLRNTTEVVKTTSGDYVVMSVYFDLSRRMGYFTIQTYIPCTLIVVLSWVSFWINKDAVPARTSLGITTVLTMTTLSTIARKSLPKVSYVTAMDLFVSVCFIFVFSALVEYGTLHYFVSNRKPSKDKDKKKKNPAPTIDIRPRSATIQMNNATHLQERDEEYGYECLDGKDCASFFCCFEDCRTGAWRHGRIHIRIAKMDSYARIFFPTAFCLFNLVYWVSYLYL

CCCCC/C=C\C/C=C\C/C=C\C/C=C\CCCC(=O)NCC(=O)O [NA-glycine]
EC50: 1 to 10 µM

— paper PMC3775635, “Do N-arachidonyl-glycine (NA-glycine) and 2-arachidonoyl glycerol (2-AG) share mode of action and the binding site on the β2 subunit of GABAA receptors?” (PeerJ, 2013)
